Data set [1] is described as follows: Induction of CPT1 gene expression in human skeletal muscle cells at 1000 nM by RT-PCR. It is filed as functional.
Data set [2] concerns Rattus norvegicus. The data set can be described thus: Increase in HDL cholesterol level in po dosed hypercholesterolemic Sprague-Dawley rat serum after 8 days. The class given is functional.
For data set [3], the system named is Mus musculus. The data set can be described thus: Increase in HDL cholesterol level in po dosed hApoA1 transgenic mouse after 7 days. The class given is functional, organism-based.
A short description of data set [4]: AUC in ob/ob C57BL/6J-leptin deficient obese mouse at 1 mg/kg administered as multiple dose after 11 days. The class given is ADME, organism-based. Also noted: dose 1 mg/kg. The conditions noted are these: plasma.
The test system of data set [5] is Canis familiaris. Put plainly: Antihyperlipidemic activity in Beagle dog serum assessed as reduction in total cholesterol level at 0.3 to 10 mg/kg, po/day after 7 days. Conditions: Canis lupus familiaris. It is filed as functional, organism-based.
Data set [6] in a line: Cmax in Beagle dog at 0.3 mg/kg administered as multiple dose after 7 days. The class given is ADME, organism-based, Canis lupus familiaris. Also noted: dose 0.3 mg/kg. Conditions: in vivo.
Data set [7] concerns the target T1, Peroxisome proliferator-activated receptor delta (Homo sapiens, UniProt Q03181).
T1 sequence (Q03181 whole entry): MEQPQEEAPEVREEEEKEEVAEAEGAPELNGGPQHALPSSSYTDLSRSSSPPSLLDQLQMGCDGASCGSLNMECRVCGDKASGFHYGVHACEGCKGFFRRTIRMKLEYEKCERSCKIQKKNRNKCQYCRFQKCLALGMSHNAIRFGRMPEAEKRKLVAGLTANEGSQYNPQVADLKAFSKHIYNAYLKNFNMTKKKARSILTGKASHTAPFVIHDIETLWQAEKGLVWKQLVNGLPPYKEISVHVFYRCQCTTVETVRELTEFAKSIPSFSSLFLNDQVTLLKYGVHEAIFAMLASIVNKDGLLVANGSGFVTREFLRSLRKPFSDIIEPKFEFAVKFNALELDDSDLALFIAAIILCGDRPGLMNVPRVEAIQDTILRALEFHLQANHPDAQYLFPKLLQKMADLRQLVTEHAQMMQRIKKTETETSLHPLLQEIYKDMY
The data set can be described thus: Agonist activity at human PPARdelta-Gal4 in HEK293 cells by luciferase reporter assay. The class given is functional, cell-based. A general note: In a reporter assay the amount or activity of a reporter protein is the signal.

Data set [8] in a line: Activity at liver X receptor.

Here are results for 1 molecule from ChEMBL document CHEMBL1143875, “Synthesis and structure-activity relationships of thiadiazole-derivatives as potent and orally active peroxisome proliferator-activated receptors alpha/delta dual agonists” (Bioorg Med Chem, 2008).

Structures are written as SMILES. The source made the active and inactive calls. No cut-off for these calls is given here.

Regarding `Cc1cc(SCc2nc(-c3ccc(Cl)c(Cl)c3)ns2)ccc1OC(C)(C)C(=O)O`, the Fold change in data set [1] turned out to be 7.8. Moreover, the Activity in data set [2] was 45 mg/dL; in data set [3] it was “Dose-dependent effect”; in data set [5], “Dose-dependent effect”. Further, the AUC at 264 h in data set [4] was 47600 ng·h/mL. In addition, in data set [6], the peak level (Cmax) was 398 ng/mL. The molecule further registered an EC50 in data set [7] of 8 nM. Moreover, the outcome in data set [8] was inactive.

A word on the AUC: it is the area under the concentration-time curve, a measure of exposure. As a reminder, the Cmax is the peak of the concentration-time curve. Usually EC50 stands for the concentration giving half of the maximal effect. Lower therefore signals an effect from little substance.
